According to ChEMBL document CHEMBL1201862, “PubChem BioAssay data set” (2004):
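Dose response: 5 concentrations. Exposure: 48 h. Format: 96-well plates. Endpoint: linear interpolation; highest concentration if not reached. GI50 = concentration required for 50% inhibition of growth.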 Calls of active or inactive are those of the source. No stated cut-off is given here; in the data, active = GI50 up to about 1.1 µM and inactive = higher.

Columns and labels:
Experiment in all cases: NCI tumour cell line growth inhibition, 48 h
786-0 = test system: 786-0
A498 = test system: A498
BT-549 = test system: BT-549
HCC 2998 = test system: HCC 2998
HCT-116 = test system: HCT-116
HCT-15 = test system: HCT-15
HOP-62 = test system: HOP-62
Hs-578T = test system: Hs-578T
M14 = test system: M14
MCF7 = test system: MCF7
MDA-MB-435 = test system: MDA-MB-435
NCI-H23 = test system: NCI-H23
NCI-H460 = test system: NCI-H460
PC-3 = test system: PC-3
SF-268 = test system: SF-268
SK-MEL-2 = test system: SK-MEL-2
SNB-75 = test system: SNB-75
SW-620 = test system: SW-620
U-251 = test system: U-251
UO-31 = test system: UO-31

Structure (SMILES) | GI50 (786-0) | GI50 (A498) | GI50 (BT-549) | GI50 (HCC 2998) | GI50 (HCT-116) | GI50 (HCT-15) [µM] | GI50 (HOP-62) | GI50 (Hs-578T) | GI50 (M14) | GI50 (MCF7) | GI50 (MDA-MB-435) | GI50 (NCI-H23) | GI50 (NCI-H460) | GI50 (PC-3) | GI50 (SF-268) | GI50 (SK-MEL-2) | GI50 (SNB-75) | GI50 (SW-620) | GI50 (U-251) | GI50 (UO-31)
O=C(O)/C(=C\c1ccccc1)Cc1ccccc1 | > 100 µM (inactive) | > 100 µM (inactive) | > 100 µM (inactive) | > 100 µM (inactive) | > 100 µM (inactive) | > 100 | > 100 µM (inactive) | > 100 µM (inactive) | > 100 µM (inactive) | > 100 µM (inactive) | > 100 µM (inactive) | > 100 µM (inactive) | > 100 µM (inactive) | > 100 µM (inactive) | > 100 µM (inactive) | > 100 µM (inactive) | > 100 µM (inactive) | > 100 µM (inactive) | > 100 µM (inactive) | > 100 µM (inactive)
CC(C)(C)OC(=O)N1CCC(C(=O)O)CC1 | > 100 µM (inactive) | > 100 µM (inactive) | > 100 µM (inactive) | > 100 µM (inactive) | > 100 µM (inactive) | > 100 | > 100 µM (inactive) | > 100 µM (inactive) | > 100 µM (inactive) | > 100 µM (inactive) | > 100 µM (inactive) | > 100 µM (inactive) | > 100 µM (inactive) | > 100 µM (inactive) | > 100 µM (inactive) | > 100 µM (inactive) | > 100 µM (inactive) | > 100 µM (inactive) | > 100 µM (inactive) | > 100 µM (inactive)
O=C(N/N=C/c1ccc2c(c1)CCC2)c1ccccc1O | 18.5 µM (inactive) | 15.7 µM (inactive) | 19.3 µM (inactive) | 13.3 µM (inactive) | 19.4 µM (inactive) | 22.9 | 17 µM (inactive) | 22.9 µM (inactive) | 30 µM (inactive) | 16.2 µM (inactive) | 21.5 µM (inactive) | 24.2 µM (inactive) | 22.1 µM (inactive) | 19.7 µM (inactive) | 23.8 µM (inactive) | 23.4 µM (inactive) | 16.8 µM (inactive) | 31.1 µM (inactive) | 17.7 µM (inactive) | 29 µM (inactive)
CCOC(=O)N/N=C/C1=NN(C(=O)OCC)[S+]([O-])C1C (centres undefined) | > 100 µM (inactive) | > 100 µM (inactive) | > 100 µM (inactive) | > 100 µM (inactive) | > 100 µM (inactive) | > 100 | > 100 µM (inactive) | > 100 µM (inactive) | > 100 µM (inactive) | > 100 µM (inactive) | > 100 µM (inactive) | > 100 µM (inactive) | 96.8 µM (inactive) | > 100 µM (inactive) | > 100 µM (inactive) | > 100 µM (inactive) | > 100 µM (inactive) | > 100 µM (inactive) | > 100 µM (inactive) | > 100 µM (inactive)
O=[N+]([O-])c1cc(-c2nc(-c3ccccc3)c(-c3ccccc3)[nH]2)c(O)c([N+](=O)[O-])c1 | 21.6 µM (inactive) | 20.8 µM (inactive) | 20 µM (inactive) | 16.6 µM (inactive) | 17.7 µM (inactive) | 15.8 | 20.4 µM (inactive) | 27.4 µM (inactive) | 21.1 µM (inactive) | 24.7 µM (inactive) | 32.6 µM (inactive) | 16.9 µM (inactive) | 21.5 µM (inactive) | 20.3 µM (inactive) | 30.1 µM (inactive) | 19.9 µM (inactive) | 23 µM (inactive) | 27.5 µM (inactive) | 14.8 µM (inactive) | 18.2 µM (inactive)
Nc1c(Br)cc(-c2nc3ccccc3s2)cc1Br | > 100 µM (inactive) | > 100 µM (inactive) | > 100 µM (inactive) | 30.6 µM (inactive) | > 100 µM (inactive) | > 100 | > 100 µM (inactive) | > 100 µM (inactive) | > 100 µM (inactive) | 18.9 µM (inactive) | > 100 µM (inactive) |  | > 100 µM (inactive) | > 100 µM (inactive) | > 100 µM (inactive) | > 100 µM (inactive) | > 100 µM (inactive) | > 100 µM (inactive) | > 100 µM (inactive) | > 100 µM (inactive)
COC(=O)C(Cc1ccc(Oc2cc(CC(NC(=O)c3ccccc3)C(=O)OC)ccc2OC)cc1)NC(=O)c1ccccc1 (centres undefined) | 7.83 µM (inactive) | 46.3 µM (inactive) | 26.7 µM (inactive) | 13.5 µM (inactive) | 30.3 µM (inactive) | 28.7 | 38.3 µM (inactive) | 23 µM (inactive) | 6.95 µM (inactive) | 16.6 µM (inactive) | 18.4 µM (inactive) | 22.9 µM (inactive) | 22.8 µM (inactive) | 22.7 µM (inactive) | 19.7 µM (inactive) | 14.5 µM (inactive) | 29.7 µM (inactive) | 39.3 µM (inactive) | 32.8 µM (inactive) | 9.59 µM (inactive)
